# Legend:
# [1] = tested on: human lymphoblast cell lines (LCLs); assay: Lyso-PS content of treated LCLs; format: cell-based; conditions: 1 μM, 4 h
# Description: (§1) ABHD16A^+/+, ABHD16A^+/+, and ABHD16A^−/− littermates of 10 weeks age were anaesthetized by isoflurane and killed by decapitation. The tissues (brains were sliced laterally into two hemispheres; entire spinal cord) were harvested, weighed, and immediately submerged in liquid N2. Tissues (one half brain or entire spinal cord) were then Dounce-homogenized in 8 mL of 2:1:1 (vol/vol/vol) CHCl3: MeOH: PBS containing the internal standard mix (1 nmol 17:1 FFA, and 100 pmol each of 17:1 lyso-PS, 17:0-20:4 PS, 17:1 lyso-PC, 17:0-20:4 PC, 17:0-20:4 PE and 50 pmol of 2-AG-d5). Homogenates were transferred to a glass vial and centrifuged at 2800×g for 10 minutes to separate the two phases. The organic phase (bottom) was removed, 200 μL of formic acid was added to acidify the aqueous homogenate (to enhance extraction of phospholipids), and CHCl3 was added to make up 8 mL volume. […]
# (§2) All the metabolites analyzed in this study were quantified using the multiple reaction monitoring (MRM) methods the targeted LC/MS analysis was done using an Agilent Technologies 6460 Triple Quad LC/M with an Agilent Technologies 1290 Infinity series quaternary pump. All data was collected using the LC/MS Data Acquisition mode of the Mass Hunter Workstation Software version B.05.00 build 5.0.5027.0 SP, and analyzed using the Quantitative Analysis mode of the same software. […]
# [2] = tested on: mouse peritoneal macrophages; assay: Lyso-PS content of thioglycollate-elicited peritoneal macrophages; format: cell-based; conditions: pre-treatment 1 μM, 4 h; LPS 5 μg/mL, 7 h
# Description: as §1, §2
# [3] = molecular target: PS lipase activity of mouse peritoneal macrophages (Mus musculus, UniProt Q9Z1Q2); assay: PS lipase activity of peritoneal macrophage membrane proteomes; conditions: LPS-stimulated macrophages; 1 μM, 30 min, 37° C.
# PS lipase activity of mouse peritoneal macrophages, sequence (Q9Z1Q2 whole entry): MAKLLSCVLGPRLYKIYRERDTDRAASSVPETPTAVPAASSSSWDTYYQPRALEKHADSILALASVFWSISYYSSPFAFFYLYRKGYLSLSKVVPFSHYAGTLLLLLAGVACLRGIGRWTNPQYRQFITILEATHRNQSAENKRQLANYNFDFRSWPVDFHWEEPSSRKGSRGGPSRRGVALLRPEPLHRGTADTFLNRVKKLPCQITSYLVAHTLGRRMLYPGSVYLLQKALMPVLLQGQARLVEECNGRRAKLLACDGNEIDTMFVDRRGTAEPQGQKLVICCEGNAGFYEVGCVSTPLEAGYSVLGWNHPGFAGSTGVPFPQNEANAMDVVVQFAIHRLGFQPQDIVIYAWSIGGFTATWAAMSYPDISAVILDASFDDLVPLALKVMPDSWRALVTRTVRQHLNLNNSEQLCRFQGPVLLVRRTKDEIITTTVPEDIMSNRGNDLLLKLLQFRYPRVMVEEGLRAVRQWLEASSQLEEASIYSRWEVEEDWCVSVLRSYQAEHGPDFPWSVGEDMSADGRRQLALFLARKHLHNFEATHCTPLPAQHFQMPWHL
# [4] = tested on: K562 cells; assay: PS lipase activity of membrane fraction after in situ treatment; conditions: 1 μM, 4 h
smiles,measurement,setting,value
"CCCCCCCCCCCCCC1OC(=O)/C1=C\CCCCC(N)=O (centres unmarked) [KC01, (Z)-6-(2-oxo-4-tridecyloxetan-3-ylidene)hexanamide]",secreted lyso-PSs,[1]; ABHD12-null LCL,significantly lowered
same,cellular lyso-PSs,[1]; all LCLs,decreased cellular lyso-PSs
same,basal and LPS-induced cellular and secreted lyso-PSs,[2],reduced
same,PS lipase activity,[3],blocked
same,decrease of PS-lipase activity vs DMSO,[4],> 90%

# From US20170313669A1, “LACTONE COMPOUNDS AND METHODS OF MAKING AND USING SAME” (THE SCRIPPS RESEARCH INSTITUTE, priority 2015, published 2017)
